From ChEMBL document CHEMBL3870326, “Synthesis and structure activity relationships of glycine amide derivatives as novel Vascular Adhesion Protein-1 inhibitors” (Bioorg Med Chem, 2017)
Values belong to the compound of their own block, whether it stands above or below them.

Key:
[1] = Metabolic stability in liver microsomes (unknown origin); format: ADME
[2] = Solubility of the compound; format: physicochemical
[3] = Stability in Wistar rat blood assessed as parent compound remaining at 1 ug/ml after 1 hr by LC-MS/MS analysis; format: ADME, tissue-based; settings: read-out: Stability
[4] = pampa, pH 6.5, 2 h, 50 µM
in vitro = settings: PAMPA, pH 6.5
[5] = Half life in Wistar rat plasma at 1 mg/kg, iv by LC-MS/MS analysis; format: ADME, organism-based
[6] = Cmax in Wistar rat plasma at 1 mg/kg, po by LC-MS/MS analysis; format: ADME, organism-based; set-up: dose 1 mg/kg, route oral
[7] = Total clearance in Wistar rat plasma at 1 mg/kg, iv by LC-MS/MS analysis; format: ADME, organism-based
[8] = AUC (0 to 24 hrs) in Wistar rat plasma at 1 mg/kg, po by LC-MS/MS analysis; format: ADME, organism-based; set-up: dose 1 mg/kg, time < 24 hr, route oral
[9] = AUC (0 to 24 hrs) in Wistar rat plasma at 1 mg/kg, iv by LC-MS/MS analysis; format: ADME, organism-based; set-up: time < 24 hr, dose 1 mg/kg, route intravenous
[10] = Half life in Wistar rat plasma at 1 mg/kg, po by LC-MS/MS analysis; format: ADME, organism-based
[11] = Volume of distribution at steady state in Wistar rat plasma at 1 mg/kg, iv by LC-MS/MS analysis; format: ADME, organism-based; settings: read-out: Vdss
[12] = Oral bioavailability in Wistar rat plasma at 1 mg/kg by LC-MS/MS analysis; format: ADME, organism-based

Stability [1]: Stable
solubility [2]: Soluble
remaining at 1 h, 1 ug/ml [3]: 33%
Peff [4]: Permeable
SMILES: Cl.NCC(=O)NCc1cccc(-c2ccccc2)c1

SMILES: CCNC(=O)c1ccc(-c2cccc(CN(C)C(=O)CN)c2)cc1.Cl
Papp at 2 h, 50 µM (in vitro): < 0.2 ×10⁻⁶ cm/s

SMILES: CN(Cc1cccc(-c2ccc(N3CCOCC3)cc2)c1)C(=O)CN.O=C(O)C(=O)O
half-life [5]: 28.2 min
Cmax [6]: 73.4 ng/mL
clearance [7]: 134 mL/min/kg
AUC(0-t) at 24 h [8]: 69.6 ng·h/mL
AUC(0-t) at 24 h [9]: 127 ng·h/mL
half-life [10]: 34.8 min
Vd [11]: 6.06 L/kg
bioavailability [12]: 54.9%
Papp at 2 h, 50 µM (in vitro): 22.1 ×10⁻⁶ cm/s

SMILES: CCN(CC)C(=O)c1ccc(-c2cccc(CN(C)C(=O)CN)c2)cc1.O=C(O)C(=O)O
Papp at 2 h, 50 µM (in vitro): 3.8 ×10⁻⁶ cm/s
